Measurements: patent publication US20250136595A1, “ACYLATED HETEROCYCLIC QUINAZOLINE DERIVATIVES AS INHIBITORS OF ERBB2” (Enliven Inc., priority 2022, published 2025)
pIC50: −log10 of the molar value.

Experiments:
Ba/F3 ERBB2 YVMA = Ba/F3 ERBB2 YVMA (Homo sapiens, UniProt P04626, DUP772-775, cells depend on it); test: Cell viability assay (CellTiter Glo) in Ba/F3 cells engineered to express ERBB2 YVMA; format: cell-based, mouse; conditions: Ba/F3 cells expressing human ERBB2 YVMA mutant, 72 hours, % viability, read-out: Ba/F3 ERBB2 YVMA IC50
Protocol: Cells were treated with compounds, and cell viability was measured as a metric of kinase inhibition.
The Ba/F3 cell line is IL-3-dependent mouse cell line derived from the C3H mouse strain. Ba/F3 cell lines were engineered to express human ERBB2 or EGFR kinases, rendering the cells IL-3 independent. The lines were generated via retroviral transduction utilizing a Moloney murine leukemia virus (MMLV) promoter, and constructs are stably integrated into the cell genome. The sequences of the ERBB2 and EGFR genes used were NCBI Reference Sequences NM_004448.3 and NM_005228.3, respectively.
Similarly, Ba/F3 cell lines engineered to express EGFR, ERBB2, or ERBB2 mutants were grown, harvested, counted and seeded at 3000 cells per well in 96-well plates for the data sets shown in Tables B3-B4. A subset of wells contained media only (low control, “LC”).
Table B1 provides the growth media and number of cells seeded per well for the each cell line.
Compounds were dissolved in DMSO and serially diluted. Serially-diluted compound or a DMSO only control (high control, “HC”) was added to the plated cells in each well. […] The final proportion of DMSO never exceeded 0.1%.
Plates were placed in a 37° C., 5% CO2 incubator for 72 hours. Plates were then removed from the incubator and equilibrated for 15 minutes at room temperature. 40 μl of CellTiter Glo reagent (Promega) was added to measure the relative level of metabolically active cells by quantifying intracellular ATP concentrations. Plates were incubated for 30 minutes at room temperature, and luminescence was measured. Percent viability was normalized to a vehicle control only using the following formula: % viability=100×(Lumsample−LumLC)/(LumHC−LumLC). Graphical curves were fitted using a nonlinear regression model with a sigmoidal dose response.

[1] = target: T1, phosphorylated ERBB2 (pERBB2) (Homo sapiens, UniProt P04626); test: Detection of phosphorylated ERBB2 (pERBB2) by ELISA in BT-474 cells; format: cell-based; conditions: four hour incubation with compound
T1 construct: endogenous in cells; host or cells: BT-474
Protocol: BT-474 cells were seeded into a 96-well at 2.0*10^4 cells/100 μl/well. Compounds were dissolved and serially diluted in DMSO. The compounds were then were added, mixed, and incubated for four hours at 37° C., 5% CO2. Compounds were added using four-fold dilutions at final concentrations ranging from 10 μM to 0.01 nM. Following the four hour incubation with compounds, cell lysates were prepared. Plates were centrifuged for 5 min at 3000 RPM, and supernatant was removed from each well. Cells were washed 3 times by resuspension in 150 μl PBS, followed by centrifugation and removal of the supernatant, as above. […] Cells were incubated with lysis buffer for 1 hour at 4° C., and then stored at -80° C. Enzyme-linked immunosorbent assays (ELISA) were performed to measure phosphorylated ERBB2 levels. […] The next day, plates were washed with PBS+0.05% Tween20 (PBST). 150 μl of 5% BSA blocking solution was added for 1 hour at room temperature, with shaking. Plates were washed with PBST. Cell lysates were thawed and 100 μl of lysate was added to the ELISA plate. The plates were incubated for 2 hours at room temperature, with shaking. […] Plates were incubated for 1 hour at room temperature, with shaking. Plates were then washed with PBST, and 100 μl TMB substrate solution (R&D Systems, cat #DY999) was added. Plate were incubated in the dark for 20 minutes at room temperature. 50 μl of Stop solution (R&D Systems, cat #DY994) (50 μl) was added to each well and mixed. Optical density at 450 nm was read on an EnSpire plate reader (Perkin Elmer). The remaining kinase activity by calculated using the following formula: % Relative activity=100×([…]). The low and high control values (“LC” and “HC”) were generated from lysate from wells without cells or with cells treated with 0.1% DMSO, respectively.

[2] = target: T2, phosphorylated EGFR (pEGFR) (Homo sapiens, UniProt P00533); test: Detection of phosphorylated EGFR (pEGFR) in EGF-stimulated A431 cells (AlphaLISA); format: cell-based; conditions: A431 cells (10% FBS), 4 hours incubation, EGF 30 ng/mL for 10 minutes
T2 construct: performed to measure phosphorylated EGFR levels using A431 cells; endogenous in cells; host or cells: A431
Protocol: Enzyme-linked immunosorbent assays (ELISA) were performed to measure phosphorylated EGFR levels using A431 cells (10% FBS). A431 (1.0*10^4 cells/40 μl/well) cells were seeded in 384 well. Compounds were dissolved in DMSO, serially diluted in DMSO and then were added, mixed, and incubated for 4 hours at 37° C., 5% CO2. Following the 4-hours incubation, cells were stimulated for 10 minutes with EGF (Invitrogen, cat #PHG0311) at a final concentration of 30 ng/mL in the incubator. The media was aspirated and cells were lysed in 10 μL lysis buffer with protease and phosphatase inhibitors (PerkinElmer, cat #ALSU-PEGFR-A50K). The plates were placed on a shaker for 5 minutes and then incubated for 30 min at 4° C. for complete lysis. The lysate was transferred to an Optiplate (Perkin Elmer, cat #6007290).
Acceptor mix (PerkinElmer, cat #ALSU-PEGFR-A50K) was prepared just before use and 5 μL was dispensed to all the wells, followed by a 1.5-2 h incubation at room temperature in dark. The donor mix (PerkinElmer, cat #ALSU-PEGFR-A50K) was prepared under low light conditions prior to use and 5 μl of donor mix was added to all the wells under subdued lighting or green filters. The plates were placed on a shaker for 5 min, sealed, and incubated overnight at room temperature in dark. Plates were read on the Envision (PerkinElmer) using standard AlphaLISA settings.
The percentage of inhibition on EGFR phosphorylation was calculated following equation: % Inhibition=100×(LumHC−LumSample)/(LumHC−LumLC). The low and high controls (LC/HC) are generated from lysate from wells with cells treated with DMSO or […] Staurosporine (BioAustralis, cat #BIA-S1086), […]. IC50 values were calculated by fitting the Curve using XLfit (v5.3.1.3), equation 201: Y=Bottom+ (Top−Bottom)/(1+10^((LogIC50−X)*HillSlope)).

T2 sequence (P00533 25-1210): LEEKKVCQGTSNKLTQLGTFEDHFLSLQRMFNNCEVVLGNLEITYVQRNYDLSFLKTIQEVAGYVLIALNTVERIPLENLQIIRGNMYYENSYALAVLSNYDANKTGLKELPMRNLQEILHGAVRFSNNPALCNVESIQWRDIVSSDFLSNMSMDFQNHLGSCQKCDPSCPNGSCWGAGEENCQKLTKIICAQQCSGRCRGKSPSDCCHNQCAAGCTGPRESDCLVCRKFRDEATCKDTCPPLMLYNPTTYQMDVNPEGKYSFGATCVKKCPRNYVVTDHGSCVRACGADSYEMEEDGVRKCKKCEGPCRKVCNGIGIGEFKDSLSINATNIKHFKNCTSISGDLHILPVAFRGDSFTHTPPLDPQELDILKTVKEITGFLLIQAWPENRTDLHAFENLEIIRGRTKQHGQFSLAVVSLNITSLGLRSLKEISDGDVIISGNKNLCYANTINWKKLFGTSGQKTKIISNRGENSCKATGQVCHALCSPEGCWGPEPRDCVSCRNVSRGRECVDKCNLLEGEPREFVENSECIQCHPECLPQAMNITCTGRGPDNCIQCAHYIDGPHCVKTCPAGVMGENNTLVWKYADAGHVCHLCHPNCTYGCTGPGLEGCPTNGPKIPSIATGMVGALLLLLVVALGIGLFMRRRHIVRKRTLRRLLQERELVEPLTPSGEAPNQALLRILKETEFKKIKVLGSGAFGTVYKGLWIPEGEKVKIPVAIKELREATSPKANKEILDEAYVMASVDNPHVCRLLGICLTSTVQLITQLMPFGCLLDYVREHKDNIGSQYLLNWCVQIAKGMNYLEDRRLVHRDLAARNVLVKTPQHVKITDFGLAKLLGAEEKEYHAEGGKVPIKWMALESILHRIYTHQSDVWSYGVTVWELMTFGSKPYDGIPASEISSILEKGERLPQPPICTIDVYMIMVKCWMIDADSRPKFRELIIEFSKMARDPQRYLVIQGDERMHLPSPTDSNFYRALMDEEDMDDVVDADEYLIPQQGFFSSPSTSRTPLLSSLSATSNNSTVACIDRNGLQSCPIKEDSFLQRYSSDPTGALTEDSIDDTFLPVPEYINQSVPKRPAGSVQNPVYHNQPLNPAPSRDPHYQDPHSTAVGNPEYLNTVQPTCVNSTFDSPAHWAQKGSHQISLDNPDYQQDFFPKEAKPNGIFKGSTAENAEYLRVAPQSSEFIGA
T1 sequence (P04626 23-1255): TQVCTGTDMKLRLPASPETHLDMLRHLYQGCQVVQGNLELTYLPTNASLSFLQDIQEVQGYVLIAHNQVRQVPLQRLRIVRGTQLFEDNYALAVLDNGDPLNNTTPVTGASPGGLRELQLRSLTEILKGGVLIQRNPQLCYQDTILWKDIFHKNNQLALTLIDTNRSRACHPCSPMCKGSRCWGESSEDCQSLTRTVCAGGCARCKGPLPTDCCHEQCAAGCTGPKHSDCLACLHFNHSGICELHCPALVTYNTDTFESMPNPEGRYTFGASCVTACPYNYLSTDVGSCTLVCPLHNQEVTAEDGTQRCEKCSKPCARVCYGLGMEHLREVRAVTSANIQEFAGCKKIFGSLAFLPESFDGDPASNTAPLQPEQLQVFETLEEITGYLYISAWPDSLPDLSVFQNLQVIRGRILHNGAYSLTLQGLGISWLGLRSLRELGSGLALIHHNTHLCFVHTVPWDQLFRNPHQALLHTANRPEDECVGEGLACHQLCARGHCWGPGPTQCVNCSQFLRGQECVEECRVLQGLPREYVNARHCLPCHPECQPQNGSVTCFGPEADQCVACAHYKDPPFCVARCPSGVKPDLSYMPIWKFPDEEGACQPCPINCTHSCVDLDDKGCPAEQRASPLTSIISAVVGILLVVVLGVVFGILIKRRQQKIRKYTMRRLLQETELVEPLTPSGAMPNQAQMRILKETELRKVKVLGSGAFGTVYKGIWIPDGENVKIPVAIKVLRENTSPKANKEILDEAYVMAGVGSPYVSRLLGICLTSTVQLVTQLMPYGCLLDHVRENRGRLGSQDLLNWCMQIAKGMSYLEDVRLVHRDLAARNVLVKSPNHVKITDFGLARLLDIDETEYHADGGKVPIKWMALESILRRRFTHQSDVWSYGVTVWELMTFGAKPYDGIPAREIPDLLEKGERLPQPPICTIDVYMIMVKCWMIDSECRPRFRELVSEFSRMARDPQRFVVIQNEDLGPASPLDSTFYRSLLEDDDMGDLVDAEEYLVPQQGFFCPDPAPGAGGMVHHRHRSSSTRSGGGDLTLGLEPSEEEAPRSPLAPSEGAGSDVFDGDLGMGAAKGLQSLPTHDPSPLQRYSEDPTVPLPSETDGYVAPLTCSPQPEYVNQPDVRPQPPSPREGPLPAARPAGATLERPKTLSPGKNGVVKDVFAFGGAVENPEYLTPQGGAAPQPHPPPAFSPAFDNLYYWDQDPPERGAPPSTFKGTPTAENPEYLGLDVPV
Sequence of Ba/F3 ERBB2 YVMA (P04626 with tags, fused parts or gaps DUP772-775): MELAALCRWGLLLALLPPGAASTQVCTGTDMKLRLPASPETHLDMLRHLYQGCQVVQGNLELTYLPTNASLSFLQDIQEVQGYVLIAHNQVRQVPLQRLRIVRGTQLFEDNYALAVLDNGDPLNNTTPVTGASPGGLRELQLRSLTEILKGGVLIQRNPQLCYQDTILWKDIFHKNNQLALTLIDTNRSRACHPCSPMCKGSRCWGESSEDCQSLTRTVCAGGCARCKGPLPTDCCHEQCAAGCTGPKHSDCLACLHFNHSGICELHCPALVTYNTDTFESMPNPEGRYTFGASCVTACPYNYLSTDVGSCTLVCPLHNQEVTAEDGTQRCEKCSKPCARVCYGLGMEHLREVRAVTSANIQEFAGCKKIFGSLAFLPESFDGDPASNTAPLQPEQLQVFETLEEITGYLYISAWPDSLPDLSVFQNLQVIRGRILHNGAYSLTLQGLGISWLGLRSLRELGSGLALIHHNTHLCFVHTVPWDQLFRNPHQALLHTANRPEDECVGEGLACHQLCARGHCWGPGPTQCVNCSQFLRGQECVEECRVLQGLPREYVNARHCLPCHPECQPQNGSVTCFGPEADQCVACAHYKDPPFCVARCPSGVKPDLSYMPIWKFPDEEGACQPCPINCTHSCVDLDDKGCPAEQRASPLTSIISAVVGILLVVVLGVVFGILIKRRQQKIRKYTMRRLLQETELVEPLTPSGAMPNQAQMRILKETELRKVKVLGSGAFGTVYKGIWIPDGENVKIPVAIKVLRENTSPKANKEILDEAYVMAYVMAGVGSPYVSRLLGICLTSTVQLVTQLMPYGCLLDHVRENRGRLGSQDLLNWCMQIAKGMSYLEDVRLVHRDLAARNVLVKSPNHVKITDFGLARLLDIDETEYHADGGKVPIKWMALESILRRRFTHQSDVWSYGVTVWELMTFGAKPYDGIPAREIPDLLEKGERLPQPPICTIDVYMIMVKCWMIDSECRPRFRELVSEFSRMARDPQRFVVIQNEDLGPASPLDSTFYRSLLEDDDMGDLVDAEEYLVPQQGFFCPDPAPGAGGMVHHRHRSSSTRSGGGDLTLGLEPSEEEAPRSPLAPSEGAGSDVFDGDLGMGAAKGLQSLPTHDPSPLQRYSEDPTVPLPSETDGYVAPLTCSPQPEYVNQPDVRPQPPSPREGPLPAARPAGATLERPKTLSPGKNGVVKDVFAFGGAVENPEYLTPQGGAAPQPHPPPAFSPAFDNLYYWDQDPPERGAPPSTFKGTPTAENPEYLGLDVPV

SMILES	pIC50 [1]	pIC50 [2]	GI50 (Ba/F3 ERBB2 YVMA)
CC#CC(=O)N1CCN(c2ccc3ncnc(Nc4ccc(Oc5ccn6ncnc6c5)c(C)c4)c3n2)C[C@@H]1C [Compound 22, 1-[(2S)-2-methyl-4-{4-[(3-methyl-4-{[1,2,4]triazolo[1,5-a]pyridin-7-yloxy}phenyl)amino]pyrido[3,2-d]pyrimidin-6-yl}piperazin-1-yl]but-2-yn-1-one]	7.20	< 5.00	0.0349 µM
C=CC(=O)N1CCN(c2ccc3ncnc(Nc4ccc(Cc5ccc6c(c5)ncn6C)c(C)c4)c3n2)CC1 [Compound 82, 1-{4-[4-({3-methyl-4-[(1-methyl-1,3-benzodiazol-5-yl)methyl]phenyl}amino)pyrido[3,2-d]pyrimidin-6-yl]piperazin-1-yl}prop-2-en-1-one]	7.27	5.68	0.0939 µM
C=CC(=O)N1CCN(c2ccc3ncnc(Nc4ccc(Oc5ccn6ncnc6c5)c(C)c4)c3c2)CC1 [Compound 7, 1-(4-{4-[(3-methyl-4-{[1,2,4]triazolo[1,5-a]pyridin-7-yloxy}phenyl)amino]quinazolin-6-yl}piperazin-1-yl)prop-2-en-1-one]	7.89	6.16	0.00865 µM
Cc1cc(Nc2ncnc3ccc(N4CCN(C(=O)/C=C/CN(C)C)[C@H](C)C4)nc23)ccc1Oc1ccc2c(c1)ncn2C [Compound 80, (2E)-4-(dimethylamino)-1-[(2R)-2-methyl-4-[4-({3-methyl-4-[(1-methyl-1,3-benzodiazol-5-yl)oxy]phenyl}amino)pyrido[3,2-d]pyrimidin-6-yl]piperazin-1-yl]but-2-en-1-one]	7.54	5.56	0.0113 µM
CC#CC(=O)N1CCN(c2ccc3ncnc(Nc4ccc(Oc5ccn6ncnc6c5)c(C)c4)c3n2)[C@H](C)C1 [Compound 24, 1-[(3R)-3-methyl-4-{4-[(3-methyl-4-{[1,2,4]triazolo[1,5-a]pyridin-7-yloxy}phenyl)amino]pyrido[3,2-d]pyrimidin-6-yl}piperazin-1-yl]but-2-yn-1-one]	7.04	< 5.00	0.0689 µM
C=CC(=O)N1CCC[C@H](Nc2ccc3ncnc(Nc4ccc(Oc5ccn6ncnc6c5)c(C)c4)c3n2)C1 [Compound 41, (S)-1-(3-((4-((4-([1,2,4]triazolo[1,5-a]pyridin-7-yloxy)-3-methylphenyl)amino)pyrido[3,2-d]pyrimidin-6-yl)amino)piperidin-1-yl)prop-2-en-1-one]	7.74	5.80	0.0197 µM
C=CC(=O)N1C2CCC1CN(c1ccc3ncnc(Nc4ccc(Oc5ccn6ncnc6c5)c(C)c4)c3n1)C2 [Compound 18, 1-(3-{4-[(3-methyl-4-{[1,2,4]triazolo[1,5-a]pyridin-7-yloxy}phenyl)amino]pyrido[3,2-d]pyrimidin-6-yl}-3,8-diazabicyclo[3.2.1]octan-8-yl)prop-2-en-1-one]	7.87	6.53	0.00626 µM
C=CC(=O)N1CCN(c2ncc3ncnc(Nc4ccc(Cc5ccc6c(c5)ncn6C)c(C)c4)c3n2)[C@@H](C)C1 [Compound 77, 1-[(3S)-3-methyl-4-[8-({3-methyl-4-[(1-methyl-1,3-benzodiazol-5-yl)methyl]phenyl}amino)-[1,3]diazino[5,4-d]pyrimidin-2-yl]piperazin-1-yl]prop-2-en-1-one]	7.13	5.45	0.0164 µM

Second part, led by results:

pIC50 [1]	pIC50 [2]	SMILES	GI50 (Ba/F3 ERBB2 YVMA)
7.67	6.50	C=CC(=O)N1CCN(c2ccc3ncnc(Nc4ccc(Cc5ccn6ncnc6c5)c(C)c4)c3n2)CC12CC2 [Compound 129, 1-(7-{4-[(3-methyl-4-{[1,2,4]triazolo[1,5-a]pyridin-7-ylmethyl}phenyl)amino]pyrido[3,2-d]pyrimidin-6-yl}-4,7-diazaspiro[2.5]octan-4-yl)prop-2-en-1-one]	0.00532 µM
7.61	< 5.00	Cc1cc(Nc2ncnc3ccc(N4CCN(C(=O)/C=C/CN(C)C)[C@H](C)C4)nc23)ccc1Cc1ccn2ncnc2c1 [Compound 117, (R,E)-1-(4-(4-((4-([1,2,4]triazolo[1,5-a]pyridin-7-ylmethyl)-3-methylphenyl)amino)pyrido[3,2-d]pyrimidin-6-yl)-2-methylpiperazin-1-yl)-4-(dimethylamino)but-2-en-1-one]	0.0251 µM
7.67	5.26	C=CC(=O)N1CCN(c2ccc3ncnc(Nc4ccc(Oc5ccn6ncnc6c5)c(C)c4)c3c2F)C[C@H]1C [Compound 63, (R)-1-(4-(4-((4-([1,2,4]triazolo[1,5-a]pyridin-7-yloxy)-3-methylphenyl)amino)-5-fluoroquinazolin-6-yl)-2-methylpiperazin-1-yl)prop-2-en-1-one]	0.0105 µM
7.97	5.99	C=CC(=O)N1CCN(c2ccc3ncnc(Nc4ccc(Oc5ccn6ncnc6c5)c(C)c4)c3n2)C[C@@H]1C [Compound 9, 1-[(2S)-2-methyl-4-{4-[(3-methyl-4-{[1,2,4]triazolo[1,5-a]pyridin-7-yloxy}phenyl)amino]pyrido[3,2-d]pyrimidin-6-yl}piperazin-1-yl]prop-2-en-1-one]	0.0075 µM
7.01	< 5.00	C=C(F)C(=O)N1CCN(c2ccc3ncnc(Nc4ccc(Oc5ccn6ncnc6c5)c(C)c4)c3n2)CC1 [Compound 13, 2-fluoro-1-(4-{4-[(3-methyl-4-{[1,2,4]triazolo[1,5-a]pyridin-7-yloxy}phenyl)amino]pyrido[3,2-d]pyrimidin-6-yl}piperazin-1-yl)prop-2-en-1-one]	0.232 µM
7.84	6.39	C=CC(=O)N1CCN(c2ccc3ncnc(Nc4ccc(Oc5ccc6c(c5)ncn6C)c(C)c4)c3n2)CC1 [Compound 14, 1-{4-[4-({3-methyl-4-[(1-methyl-1,3-benzodiazol-5-yl)oxy]phenyl}amino)pyrido[3,2-d]pyrimidin-6-yl]piperazin-1-yl}prop-2-en-1-one]	0.00783 µM
